Test results reported in PubChem BioAssay (NCI).
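Interpolation was linear, between the two tested concentrations surrounding the appropriate level; five concentrations were tested over 48 hours in 96-well plates. The concentration for full growth arrest is given as TGI.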

How the values were obtained:
Experiment in all cases: inhibition of tumour cell growth, NCI panel, 48 h
786-0 renal = tested on: 786-0 renal
A498 renal = tested on: A498 renal
A549 NSCLC = tested on: A549 NSCLC
ACHN renal = tested on: ACHN renal
BT-549 breast = tested on: BT-549 breast
CAKI-1 renal = tested on: CAKI-1 renal
COLO 205 colon = tested on: COLO 205 colon
DU-145 prostate = tested on: DU-145 prostate
EKVX NSCLC = tested on: EKVX NSCLC
HCT-116 colon = tested on: HCT-116 colon
HCT-15 colon = tested on: HCT-15 colon
HL-60(TB) leukemia = tested on: HL-60(TB) leukemia
HOP-62 NSCLC = tested on: HOP-62 NSCLC
HOP-92 NSCLC = tested on: HOP-92 NSCLC
HS 578T breast = tested on: HS 578T breast
HT29 colon = tested on: HT29 colon
IGROV1 ovarian = tested on: IGROV1 ovarian
K-562 leukemia = tested on: K-562 leukemia
KM12 colon = tested on: KM12 colon
LOX IMVI melanoma = tested on: LOX IMVI melanoma
M14 melanoma = tested on: M14 melanoma
MALME-3M melanoma = tested on: MALME-3M melanoma
MCF7 breast = tested on: MCF7 breast
MDA-MB-231 breast = tested on: MDA-MB-231 breast
MDA-MB-435 = tested on: MDA-MB-435
MDA-N = tested on: MDA-N
MOLT-4 leukemia = tested on: MOLT-4 leukemia
NCI-H226 lung = tested on: NCI-H226 lung
NCI-H23 lung = tested on: NCI-H23 lung
NCI-H460 lung = tested on: NCI-H460 lung
NCI-H522 lung = tested on: NCI-H522 lung
OVCAR-3 ovarian = tested on: OVCAR-3 ovarian
OVCAR-4 ovarian = tested on: OVCAR-4 ovarian
OVCAR-5 ovarian = tested on: OVCAR-5 ovarian
OVCAR-8 ovarian = tested on: OVCAR-8 ovarian
PC-3 prostate = tested on: PC-3 prostate
RPMI-8226 leukemia = tested on: RPMI-8226 leukemia
RXF 393 renal = tested on: RXF 393 renal
SF-268 CNS = tested on: SF-268 CNS
SF-295 CNS = tested on: SF-295 CNS
SF-539 CNS = tested on: SF-539 CNS
SK-MEL-28 melanoma = tested on: SK-MEL-28 melanoma
SK-MEL-5 melanoma = tested on: SK-MEL-5 melanoma
SK-OV-3 ovarian = tested on: SK-OV-3 ovarian
SN12C renal = tested on: SN12C renal
SNB-19 CNS = tested on: SNB-19 CNS
SNB-75 CNS = tested on: SNB-75 CNS
SR leukemia = tested on: SR leukemia
SW-620 colon = tested on: SW-620 colon
T-47D breast = tested on: T-47D breast
TK-10 renal = tested on: TK-10 renal
U251 CNS = tested on: U251 CNS
UACC-62 melanoma = tested on: UACC-62 melanoma
UO-31 renal = tested on: UO-31 renal

Measured: TGI

CC(NC(=O)C(Cc1ccc(OC(=O)c2ccccc2)cc1)NC(=O)OC(C)(C)C)C(=O)NCC(=O)NC(Cc1ccccc1)NC(=O)OCc1ccccc1 (centres undefined)
> 100 µM: all assays above
